Measured values from patent publication US20260337177A1, “TEAD CORE INHIBITORS FOR CANCER THERAPEUTICS” (University of Florida Research Foundation, Incorporated, priority 2023, published 2026).
Where two headings read alike, the source gives them in different places.

Key:
[1] = test system: TEADs; assay: TEAD-specific 8×GTIIC-luciferase reporter assay; type: cell-based; settings: for inhibition at 10 µM: 8×GTIIC-luciferase, read-out: Luciferase reporter assay inhibitory rate
Protocol: A series of compounds featuring a chloromethyl ketone moiety were synthesized (Schemes 1-4). The inhibitory rate of this series of compounds was tested using 8×GTIIC-luciferase reporter assay at 10 μM.
Next, the inhibition of TEAD transcription activity of compounds was tested varying the dosage using the 8×GTIIC-luciferase reporter assay. […] The aim was to determine whether its inhibition of TEAD transcription can lead to downregulation of the YAP-TEAD target genes. CTGF is one of the best characterized (bona fide) target gene of YAP and TAZ.
To further investigate the mechanism of the inhibitory effect of compounds in Huh7 cells, TEADs specific luciferase reporter assays were performed with compounds 22 and 12 at several concentrations. […] TEAD downstream gene expression patterns were evaluated in liver cancer cells Huh7, which has been evidenced with relative high expression of YAP and TEAD2.
HEK 293T cells were plated at 2×10^4 cells/well in a 96 well microplate and were transfected with 50 ng of 8×GTIIC-luciferase plasmid (Addgene #34615) and 0.5 ng of pRL-CMV (Promega #E226A) by using lipofectamine 3000 (Life Technologies #L3000). The 8×GTIIc-luciferase reporter is a Yap/Taz-activity reporter containing eight TEAD consensus binding sequences. After 6 h, transfected cells were treated with various concentrations of compounds or DMSO control. Luciferase signals were measured using the Dual Luciferase Reporter Assay System (Promega, E1960) according to the manufacturer's instructions. Experiments were performed in triplicate and repeated at least three times.

[2] = test system: AML12 cells; assay: AML12 normal liver cell growth inhibition (CCK8); type: cell-based; settings: for Inhibitory rate, AML12 (inhibitory percentage of AML12 cell growth): 10 μM, 3 days
[3] = test system: Huh7 cells; assay: Huh7 cell proliferation assay (CCK8); type: cell-based, human; settings: Homo sapiens
Protocol: CCK8 assay kit was used to determine antiproliferative activity of synthesized compounds against Huh7 cell line. First, Huh7 cells were seeded into 96-well plates at a density of 3000 cells/well and incubated overnight. Cells were then co-incubated with compounds at 8 concentrations for 72 h. Then, the cell proliferation was determined by the CCK8 kit according to the standard protocol. Experiments were performed in triplicate.

[4] = test system: Huh7 xenograft; assay: Huh7 mouse xenograft model, antitumor efficacy; type: in vivo, NSG mouse; settings: Sorafenib 100 mg/kg oral every three days for 24 days
Protocol: Based on the favorable in vitro potency and low toxicity, the in vivo antitumor efficacy of compound 22 was further evaluated in the NSG mouse (NOD scid gamma mouse) xenograft model from human Huh7 cells. Sorafenib, the first-line treatment for primary hepatocellular carcinoma (HCC) patients, served as the control. Compound 22 was tested as a monotherapy and in combination with Sorafenib.
The animals were administered 10 mg/kg of compound 22 twice a week for four weeks via intraperitoneal (IP) injection.
The mice were administered 50 mg/kg of compound 22 every three day for 24 days via intraperitoneal (IP) injection. Sorafenib was administered orally at a dose of 100 mg/kg following the same schedule.
Tumors were implanted by subcutaneous injection of 5×10^6 Huh7 cells in 100 μL of PBS containing 10% matrix gel (Coming, NY, USA), into the right flank of the mouse. When the tumor volume reached about 85 mm^3, mice were randomized into the vehicle control group (n=5) and a treatment group (n=5). The vehicle group (n=5) received the vehicle only (50% phosal 50 PG, 45% miglyol 810 N and 5% polysorbate 80), while the treatment group (n=5) was given compound 22 (50 mg/kg in 50% phosal 50 PG, 45% miglyol 810 N and 5% polysorbate 80) via IP injection every three days. After 24 days, mice were euthanized. Sorafenib (100 mg/kg, every three day) was dissolved in 75% Ethanol and Cremophor EL (1:1) and administered directly into the animals' stomachs using a gastric probe. Tumor size and body weight were measured every 3 days, and tumor volume was estimated using the formula volume=½×length×width^2. Tumor growth inhibition value (TGI) was calculated as TGI (%) [1−Vt/Vc]×100, where Vc and Vt were […].

[5] = Huh-7, 72 h, 3 days, CCK8, mean ± SD of three independent experiments, read-out: Cell proliferation assay IC50, Huh7

O=C(CCl)c1c[nH]c2cc(Cl)c(OCc3ccccc3)cc12 [Compound 1, 1-(5-(benzyloxy)-6-chloro-1H-indol-3-yl)-2-chloroethan-1-one]
inhibition at 10 µM [1]: 74.6% | Inhibitory rate, AML12 (inhibitory percentage of AML12 cell growth) [2]: 36.2% | IC50 [3, 5]: 2.7 ± 0.2 µM

O=C(CCl)c1c[nH]c2cc(Cl)c(OCc3cccc4ccccc34)cc12 [Compound 3, 2-chloro-1-(6-chloro-5-(naphthalen-1-ylmethoxy)-1H-indol-3-yl)ethan-1-one]
inhibition at 10 µM [1]: 69.4% | Inhibitory rate, AML12 (inhibitory percentage of AML12 cell growth) [2]: 50.3% | IC50 [3, 5]: 1.6 ± 0.3 µM

COc1cc2[nH]cc(C(=O)CCl)c2cc1OCc1ccccc1 [Compound 4, 1-(5-(benzyloxy)-6-methoxy-1H-indol-3-yl)-2-chloroethan-1-one]
inhibition at 10 µM [1]: 53.7% | Inhibitory rate, AML12 (inhibitory percentage of AML12 cell growth) [2]: 46.1% | IC50 [3, 5]: 3.8 ± 0.4 µM

COc1cc2[nH]cc(C(=O)CCl)c2cc1OCc1ccc2ccccc2c1 [Compound 5, 2-chloro-1-(6-methoxy-5-(naphthalen-2-ylmethoxy)-1H-indol-3-yl)ethan-1-one]
inhibition at 10 µM [1]: 93.9% | TEAD transcription inhibition, luciferase reporter ([1]; varying dosage, FIGS. 3A-3B): potent inhibition activity | Toxicity towards normal liver cell line AML12 [2]: high toxicity | Inhibitory rate, AML12 (inhibitory percentage of AML12 cell growth) [2]: 77.4% | IC50 [3, 5]: 2.4 ± 0.5 µM

COc1cc2[nH]cc(C(=O)CCl)c2cc1OCc1cccc2ccccc12 [Compound 6, 2-chloro-1-(6-methoxy-5-(naphthalen-1-ylmethoxy)-1H-indol-3-yl)ethan-1-one]
inhibition at 10 µM [1]: 64.5% | Inhibitory rate, AML12 (inhibitory percentage of AML12 cell growth) [2]: 62.1% | IC50 [3, 5]: 2.5 ± 0.8 µM

O=C(CCl)c1c[nH]c2ccc(OCc3ccc4ccccc4c3)cc12 [Compound 7, 2-chloro-1-(5-(naphthalen-2-ylmethoxy)-1H-indol-3-yl)ethan-1-one]
inhibition at 10 µM [1]: 5.3% | IC50 [3, 5]: > 20 µM

O=C(CCl)c1c[nH]c2ccc(OCc3ccccc3)cc12 [Compound 8, 1-(5-(benzyloxy)-1H-indol-3-yl)-2-chloroethan-1-one]
inhibition at 10 µM [1]: 20.5% | IC50 [3, 5]: 10.5 ± 0.9 µM

C=CC(=O)NCc1c[nH]c2cc(Cl)c(OCc3ccc4ccccc4c3)cc12 [Compound 9, N-((6-chloro-5-(naphthalen-2-ylmethoxy)-1H-indol-3-yl)methyl)acrylamide]
inhibition at 10 µM [1]: 1.5% | Inhibitory rate, AML12 (inhibitory percentage of AML12 cell growth) [2]: 0% | IC50 [3, 5]: 30.2 ± 2.5 µM

C=CC(=O)NCc1c[nH]c2cc(Cl)c(OCc3cccc4ccccc34)cc12 [Compound 10, N-((6-chloro-5-(naphthalen-1-ylmethoxy)-1H-indol-3-yl)methyl)acrylamide]
inhibition at 10 µM [1]: 10.6% | Inhibitory rate, AML12 (inhibitory percentage of AML12 cell growth) [2]: 0% | IC50 [3, 5]: 14.4 ± 1.2 µM

C=CC(=O)NCc1c[nH]c2cc(Cl)c(OCc3ccccc3)cc12 [Compound 11, N-((5-(benzyloxy)-6-chloro-1H-indol-3-yl)methyl)acrylamide]
Inhibitory rate, AML12 (inhibitory percentage of AML12 cell growth) [2]: 0% | IC50 [3, 5]: > 50 µM

O=C(CCl)NCc1c[nH]c2cc(Cl)c(OCc3ccc4ccccc4c3)cc12 [Compound 13, 2-chloro-N-((6-chloro-5-(naphthalen-2-ylmethoxy)-1H-indol-3-yl)methyl)acetamide]
inhibition at 10 µM [1]: 67.4% | Inhibitory rate, AML12 (inhibitory percentage of AML12 cell growth) [2]: 43.4% | IC50 [3, 5]: 5.7 ± 1.3 µM

O=C(CCl)NCc1c[nH]c2cc(Cl)c(OCc3cccc4ccccc34)cc12 [Compound 14, 2-chloro-N-((6-chloro-5-(naphthalen-1-ylmethoxy)-1H-indol-3-yl)methyl)acetamide]
inhibition at 10 µM [1]: 81.5% | Toxicity towards normal liver cell line AML12 [2]: significant cytotoxicity | Inhibitory rate, AML12 (inhibitory percentage of AML12 cell growth) [2]: 54.1% | IC50 [3, 5]: 0.8 ± 0.2 µM | IC50 ([3]; Huh-7, Table 3 column is in μM, read-out: Huh7 cell growth inhibition / proliferation IC50): 0.8 µM

O=C(CCl)NCc1c[nH]c2cc(Cl)c(OCc3cccc(C(F)(F)F)c3)cc12 [Compound 15, 2-chloro-N-((6-chloro-5-((3-(trifluoromethyl)benzyl)oxy)-1H-indol-3-yl)methyl) acetamide]
inhibition at 10 µM [1]: 47.9% | Inhibitory rate, AML12 (inhibitory percentage of AML12 cell growth) [2]: 41.1% | IC50 [3, 5]: 8.3 ± 0.8 µM

N#C/C(=C\c1c[nH]c2cc(Cl)c(OCc3ccccc3)cc12)C(N)=O [Compound 16, (E)-3-(5-(benzyloxy)-6-chloro-1H-indol-3-yl)-2-cyanoacrylamide]
Inhibitory rate, AML12 (inhibitory percentage of AML12 cell growth) [2]: 0% | IC50 [3, 5]: > 50 µM

N#C/C(=C\c1c[nH]c2cc(Cl)c(OCc3ccc4ccccc4c3)cc12)C(N)=O [Compound 17, (E)-3-(6-chloro-5-(naphthalen-2-ylmethoxy)-1H-indol-3-yl)-2-cyanoacrylamide]
inhibition at 10 µM [1]: 47.3% | Inhibitory rate, AML12 (inhibitory percentage of AML12 cell growth) [2]: 60.2% | IC50 [3, 5]: 4.1 ± 0.6 µM

N#C/C(=C\c1c[nH]c2cc(Cl)c(OCc3cccc4ccccc34)cc12)C(N)=O [Compound 18, (E)-3-(6-chloro-5-(naphthalen-1-ylmethoxy)-1H-indol-3-yl)-2-cyanoacrylamide]
inhibition at 10 µM [1]: 51.3% | Inhibitory rate, AML12 (inhibitory percentage of AML12 cell growth) [2]: 70.3%

N#C/C(=C\c1c[nH]c2cc(Cl)c(OCC3CCC(F)(F)CC3)cc12)C(N)=O [Compound 19, (E)-3-(6-chloro-5-((4,4-difluorocyclohexyl)methoxy)-1H-indol-3-yl)-2-cyanoacrylamide]
inhibition at 10 µM [1]: 60.1% | Inhibitory rate, AML12 (inhibitory percentage of AML12 cell growth) [2]: 30.1% | IC50 [3, 5]: 5.3 ± 0.5 µM

N#C/C(=C\c1c[nH]c2cc(Cl)c(OCc3ccc4ccccc4n3)cc12)C(N)=O [Compound 20, (E)-3-(6-chloro-5-(quinolin-2-ylmethoxy)-1H-indol-3-yl)-2-cyanoacrylamide]
Inhibitory rate, AML12 (inhibitory percentage of AML12 cell growth) [2]: 0% | IC50 [3, 5]: 68.7 ± 5.4 µM

N#C/C(=C\c1c[nH]c2cc(Cl)c(OCc3cccc(C(F)(F)F)c3)cc12)C(N)=O [Compound 21, 3-(6-chloro-5-((3-(trifluoromethyl)benzyl)oxy)-1H-indol-3-yl)-2-cyanoacrylamide]
inhibition at 10 µM [1]: 59.7% | Inhibitory rate, AML12 (inhibitory percentage of AML12 cell growth) [2]: 97.1%

O=C(CCl)c1c[nH]c2cc(Cl)c(OCc3ccc(C(F)(F)F)cc3)cc12 [Compound 23, 2-chloro-1-(6-chloro-5-((4-(trifluoromethyl)benzyl)oxy)-1H-indol-3-yl)ethan-1-one]
IC50 [3, 5]: 16.9 µM

O=C(CCl)c1c[nH]c2cc(Cl)c(OCc3ccc(C(F)(F)F)c(F)c3)cc12 [Compound 24, 2-chloro-1-(6-chloro-5-((3-fluoro-4-(trifluoromethyl)benzyl)oxy)-1H-indol-3-yl)ethan-1-one]
IC50 [3, 5]: 1.8 µM

C=C(CN(C)C)C(=O)NCc1c[nH]c2cc(Cl)c(OCc3ccccc3)cc12 [Compound 25, N-((5-(benzyloxy)-6-chloro-1H-indol-3-yl)methyl)-2-((dimethylamino)methyl) acrylamide]
inhibition at 10 µM [1]: 71.8% | Inhibitory rate, AML12 (inhibitory percentage of AML12 cell growth) [2]: 37.2% | IC50 [3, 5]: 2 ± 0.7 µM

CNC(=O)c1cc(Oc2ccc(NC(=O)Nc3ccc(Cl)c(C(F)(F)F)c3)cc2)ccn1 [Sorafenib, reference compound]
Tumor growth inhibition (TGI) rate [4]: 76%
